Assay results from patent US7371411B2, “Methods for production of the oxidized glutathione composite with CIS-diamminedichloroplatinum and pharmaceutical compositions based thereof regulating metabolism, proliferation, differentiation and apoptotic mechanisms for normal and transformed cells” (Novelos Therapeutics, Inc., priority 1998, dated 2008).

How the values were obtained:
[1] = system: chronic viral hepatitis B (HBV); test: Patients with chronic viral hepatitis B; format: in vivo, human
Method: Previous treatment: from 17 Sep. 1997 the patient was administered with acyclovir during 21 days.

[2] = system: glutathione reductase, glutathione-peroxidase, glutathione-S-transferase, γ-glutamyl-transpeptidase; settings: intravenous, 2 mg/kg
Method: In addition, the activity variation of the enzymes participating in GSSG metabolism was evaluated (glutathione reductase, glutathione-peroxidase, glutathione-S-transferase,γ-glutamyl-transpeptidase).
Activity of the enzymes participating in the GSSG metabolism (glutathione reductase: EC. 1.6.4.2; glutathione-peroxidase: EC. 1.11.1.9; glutathione-S-transferase: EC.2.5.1.18; g-glutamyl-transpeptidase: EC.2.3.2.2) were determined by the standard reagent kits produced by Boehringer Mannheim GmbH.

[3] = system: mice irradiated in a dose of 1 Gy; settings: 5 mg/kg intraperitoneally daily for seven days, 8th day
Text: The study was designed to evaluate efficacy of seven-day daily administration of the test articles (with the dosing started two hours post-exposure) on the capability of the splenocytes from mice exposed to radiation to produce interleukin-1 (IL-1 α,b); interleukin-2 (IL-2); interleukin-3 (IL-3); interleukin-4 (IL-4); interleukin-6 (IL-6), interleukin-8 (IL-8); interleukin-10 (IL-10); interleukin-12 (IL-12); tumor necrosis factor-α, g (TNF-α, g), interferon-α, g (IFN-α,) and G-CSF, M-CSF, GM-CSF in vitro. In addition, the blood leukocyte and lymphocyte counts and the spleen and bone marrow cellularity (karyocyte count), as we well as splenic and medullary colony-stimulating capacity, were determined at the 8th day post-exposure.
Male CBA mice (18 to 20 g body weight) were irradiated with single dose of 180 kV X-rays filtered with 0.5 mm Cu (at 15 mA, distance—70 cm, duration two min. and 28 sec.). The total absorbed dose comprised approximately 1 Gy. […]
Additionally, hemopoietic colony-formation ability of spleen and bone marrow cells was assessed by the method of colony-forming unit (CFU) direct count in the spleens of irradiated singenic CBA mice receiving intravenously spleen or bone marrow cells obtained from animals of control or test groups.

[4] = system: HL-60 myeloid line cells; test: Growth and apoptotic DNA degradation, HL-60 cells; settings: 100 mg/mL
Method: The HL-60 myeloid line cells were grown in RPMI-1640 medium with addition of 10% fetal calf serum. Cultivation was carried out in closed flasks, the medium volume was 12 mL, it was replaced every four days.
(§1) The effect testing for the testing articles was performed 24, 48 hours after addition into the culture.
The analysis procedure involved the following: after 24-48 hour incubation there were calculated the total cell count and the dead cell count by the Trypan blue exclusion method; afterwards the cell suspension was centrifuged (at 12.000 g, in Eppendorf test-tubes during 10 min).
The HL-60 cell culture is human cells of myeloluekosis origin defective in the p53 gene.

[5] = system: normal human lymphocytes; test: Growth and apoptotic DNA degradation, normal human lymphocytes; settings: 100 mg/mL, 24, 48 hours
Method: Venous blood of healthy volunteers was collected into heparinized test-tubes, which had been tested for endotoxin. A mononuclear fraction of blood leukocytes was obtained by centrifugation in ficoll-metrizoat gradient (Histopaque, Sigma). Cell concentration was adjusted to 2×10^6 cells per 1 ml of cell culture medium (RPMI 1640), containing 20 mM HEPES, 2 mM glutamine, 50 mg/mL gentamicin and 10% fetal calf serum. Cell viability was estimated by the Trypan blue exclusion method, then the cell suspension was placed into wells of 24- and 96-well microliter plates—250,000 cells per well.
as §1
The analysis procedure involved the following: after 24-48 hour incubation there were calculated the total cell count and the dead cell count by the Trypan blue exclusion method; afterwards the cell suspension was centrifuged (at 12.000 g, in Eppendorf test-tubes during 10 min). The cell pellet was frozen and kept at −70° C. before the DNA separation. The DNA separation was conducted by Kirbi-Georgiyev phenol method. […] Then it was diluted in 10 mL of the A buffer; the DNA amount was determined by Dishe method and electrophoresis was performed in 2% agarose gel (agarose with NA grade made by “Pharmacia LKB, Biotechnology Inc” (Austria) was used). […]

[6] = system: CP-treated mice; test: Cyclophosphamide-induced hemo- and immunodepression, murine model; settings: CP 50 mg/kg; 5 mg/kg intraperitoneally daily for five days; day 8
Text: The study was designed to evaluate the effect of a five-day long administration of the test articles on the capability of the CP-treated murine splenocytes to produce interleukin-1 (IL-1 α,b); interleukin-2 (IL-2); interleukin-3 (IL-3); interleukin-4 (IL-4); interleukin-6 (IL-6), interleukin-8 (IL-8); interleukin-10 (IL-10); interleukin-12 (IL-12); tumor necrosis factor-α, g (TNF-α, g), interferon-α, g (IFN-α, g) and G-CSF, M-CSF, GM-CSF in vitro. In addition, the blood leukocyte and lymphocyte count and the bone marrow cellularity (karyocyte count) were determined at eight days after CP administration. Some animals receiving CP were then challenged with sheep red blood cells (SRBC), and the humoral immune response to the antigen was evaluated.
Male CBA mice (180 to 200 g body weight) were given a single introperitoneal injection of CP in a dose of 50 mg/kg. Four groups of animals (with no less than 15 mice in each) were formed.
#3—animals receiving a single CP injection, which further were treated with the test article (GSSG dissolved in normal saline) in a dose of 5 mg/kg;
Twenty-four hours after the CP injection, five animals in each group were immunized with SRBC (10^7 cells in 0.5 mL of NS, intra-peritoneally).
Injections were performed during five days: once a day, daily. […]

[7] = system: human peripheral blood mononuclear leukocytes; settings: 0.5-5000 mg/mL, ConA, 24 hours
Method: Oxidized glutathione (GSSG) as well as a structural analog thereof, which is a hexapeptide with a stabilized disulfide bond, were evaluated for their effect on cytokine production by human peripheral blood mononuclear leukocytes in vitro.
The leukocytic cytokine production was triggered by adding a mitogen, concanavalin A (ConA) to the cell culture immediately after introducing the test substances. In 24 hours of the cellular exposure to ConA and the test articles, the culture supernatants were sampled and stored until cytokine determination at −70° C. […]
Each concentration was established in no less than six wells by adding 50 mL of medium containing the appropriate quantity of the previously dissolved test articles. […]
Immediately after the test articles had been introduced into the cultures, 50 mL of medium containing ConA (Sigma, cell culture tested) in a quantity required for a final concentration of 4.0 mg/mL, was added to all the wells excepting three additional ones which served for evaluation of spontaneous ^3H-thymidine uptake (without ConA). […]
The filters were dried and their radioactivity (counts per minute, cpm) was determined using liquid scintillation counter, Betaplate 1205 (LKB). […]

[8] = system: stomach cancer; test: Patient with stomach cancer, peritoneal metastases, ascites, splenomegaly and cholestatic hepatitis
Method: A patient was diagnosed as having stomach neoplasm for more than two years (adenocarcinoma of moderate differentiation degree).
A decision was taken to apply GSSG drug form. The drug was injected parenterally (intramuscularly and intravenously), and additionally, the drug form was used via local injections around the tumor tissue through an endoscope. An average doses which were used for intramuscular and intravenous injections—0.1-0.5 mg/kg, and for local injections—up to 50 mg in situ. Parenteral injections of the drug were applied every other day, b.i.d. (intravenous injections at the morning, and intramuscular ones at the evening), during three weeks, and after that, two times a week during four weeks. The drug introduction through the endoscope was performed once in seven days.
The tumor was solid-like type. Stomach walls were rigid. Histology examination defined the tumor as a moderate degree differentiation adenocarcinoma. […] The drug was introduced according to the identical regime: parenterally (intramuscularly and intravenously), and additionally, the drug form was introduced via local injections around the tumor tissue through an endoscope. An average doses which were used for intramuscular and intravenous injections—0.1-0.5 mg/kg, and for local injections—up to 50 mg in situ. Parenteral injections of the drug were applied every other day, b.i.d. (intravenous injections at the morning, and intramuscular ones at the evening), during three weeks, and after that, two times in a week during four weeks. The drug introduction through the endoscope was performed once in seven days.

[9] = patient No. 4, previous treatment during 21 days
[10] = two months after treatment start

Compound	ALT after the course completion [1, 9]	Hbs Ag degree [1, 9]	bilirubin after the course completion [1, 9]	liver protrusion beyond the costal arch after the treatment course ([1]; patient No. 3 (GSSG, before 2 cm), patient No. 4 (GSSG.Pt, before 2.5 cm))	activity of the enzymes participating in the thiol (glutathione) metabolism [2]	cytokine and hemopoietic factor production by splenocytes [3]	DNA electrophoresis (apoptotic ladder) ([4]; 24 and 48 hours)	high molecular DNA in the apoptotic ladder ([4]; FIG. 14)	dead HL-60 cell quantity ([4]; Trypan blue exclusion)	normal cell proliferation [5]	cytokine and hemopoietic factor production by splenocytes [6]	cytokine production by human mononuclear leukocytes [7]	tumor size decrease ([8]; fibrogastrocopy data)	hematology and blood chemistry indices [8, 10]	liver protrusion below the costal arch [8, 10]	tumor extent at fibrogastroscopy ([8]; two months after treatment start, before: about 8 cm (GSSG course), about 6 cm (GSSG.Pt course))
Nc1nc2c(ncn2COCCO)c(=O)[nH]1 [acyclovir]	2.1 mmol/h/L	did not change	32 mmoVL													
bis-(γ-L-glutamyl)-L-cysteinyl-bis-glycine [GSSG]				0.5 cm	increases approximately two times the activity	less significant effect	revealed the DNA oligonucleosomic degradation	contained considerable amount of the high molecular DNA	reliably lower than the one after the GSSG.Pt effect	stimulated the normal cell proliferation	only exiguous stimulating effect	statistically significant and dose-dependent stimulation of the cytokine production	40%	substantial improvement of hematology and blood chemistry indices	3 cm	4.8 cm
